Measurements taken from patent US20040063725A1, “Novel n(phenylsulphonyl)glycine derivatives and their therapeutic use” (priority 2001, published 2004).
Structures can show the parent of a compound that is named as a salt.

System: formaldehyde-induced pain
Assay: formaldehyde-induced pain test in the mouse (formalin test)
Format: in vivo
Conditions: formaldehyde 0.92% in paw, licking time 15 to 30 min
Protocol: The compounds of the present invention were evaluated for their analgesic property in the formaldehyde-induced pain test in the mouse (Shibata, M., Ohkubo, T., Takahashi, H. & R. Inoki. Modified formalin test: characteristic biphasic pain response. Pain, 38. 347-352). In summary, an administration of formaldehyde (0.92% in physiological serum) is made in the front paw and the licking time, which reflects the intensity of the pain, is recorded from 0 to 5 min (1st phase) and from 15 to 30 min (2nd phase) after the injection. The percentage inhibition of the second phase of licking induced by the formaldehyde is given, for some compounds according to the invention, in the following Table: […]

Compound	% inhibition of the 2nd licking phase (30 mg/kg s.c.) [%]	% inhibition of the 2nd licking phase (10 mg/kg s.c.) [%]	further results
N-[2-[[[4-(aminoiminomethyl)phenyl]methyl][3-(dimethylamin)propyl]amino]-2-oxoethyl]-2-[[(2,4-dichloro-3-methylphenyl)sulphonyl](2-phenylethyl)amino]acetamide, Dihydrochloride [Example 23]	98		
Cc1c(Cl)ccc(S(=O)(=O)N(CCc2ccccc2)CC(=O)NCC(=O)N(CCC2CCNCC2)Cc2ccc(C(=N)N)cc2)c1Cl.O=C(O)C(F)(F)F.O=C(O)C(F)(F)F [Example 24, N-[2-[[[4-(aminoiminomethyl)phenyl]methyl](4-piperidinylethyl)amino]-2-oxoethyl]-2-[[(2,4-dichloro-3-methylphenyl)sulphonyl](2-phenylethyl)-amino]acetamide, bis Trifluoroacetate]		76	
Cc1c(Cl)ccc(S(=O)(=O)N(CCc2ccccc2)CC(=O)NCC(=O)N(CCCN(C)C)Cc2ccc(C3=NCCN3)cc2)c1Cl [Example 35, 2-[[(2,4-dichloro-3-methylphenyl)sulphonyl](2-phenylethyl)amino]-N-[2-[[[4-(4,5-dihydro-1H-imidazol-2-yl)phenyl]methyl][3-(dimethylamino)propyl]amino]-2-oxoethyl]acetamide, Dihydrochloride]		92	
N-[2-[(4-aminobutyl)(4-piperidinylmethyl)amino]-2-oxoethyl]-2-[[(2,4-dichloro-3-methylphenyl)sulphonyl](2-phenylethyl)amino]acetamide, Bis Trifluoroacetate [Example 25]	87		
Cc1c(Cl)ccc(S(=O)(=O)N(CCc2ccccc2)CC(=O)NCC(=O)N(CCCCN2CCCC2)CCCc2cnc[nH]2)c1Cl [Example 82, 2-[[(2,4-dichloro-3-methylphenyl)sulphonyl](2-phenylethyl)amino]-N-[2-[[3-(1H-imidazol-5-yl)propyl][4-(1-pyrrolidinyl)butyl]amino]-2-oxo-ethyl]acetamide, Dihydrochloride]			% inhibition of the 2nd licking phase (10 mg/kg i.p.): 63%
